Experiments:
CDK1-CYCLIN B = CDK1-CYCLIN B (Homo sapiens (Human), UniProt P06493); test: CDK protein kinase inhibition by the ADP-Glo Assay, CDK1-CYCLIN B; assay type: biochemical; settings: 1000 μM ATP
Protocol: (§1) This ADP-Glo assay measures ADP formed from a kinase reaction and indirectly quantifies the phosphorylation of peptide substrates by the CDK/cyclin protein complexes. The typical assays were carried out in Nanosyn by combining kinase/cyclin complexes, substrates, compounds, and cofactors (ATP and Mg2+) in a well of a 384-well microtiter plate (Coming 3824) and incubating at 22° C. (Table 4). At the end of the incubation, the reaction is quenched, and conversion is detected by luminescence using the Promega ADP-Glo™ Kinase Assay kit (catalog #V9102). Briefly, 5 μL of 1× enzyme and substrate buffer (or control), 50 nL of 100× compound, and 0.5 μL of 10 mM ATP were sequentially added to a well of a 384-well plate.
(§2) The Final assay buffer mixture contains: 100 mM HEPES, pH 7.5, 0.1% BSA, 0.01% Triton X-100, 1 mM DTT, 5 mM MgCl2, 10 μM Sodium Orthovanadate, 10 μM Beta-Glycerophosphate, 1000 μM Ultra Pure ATP (provided in the Promega ADP-Glo™ Kinase Assay kit), and 1% DMSO (from compound).
(§3) Upon completion, 5 μL of the ADP Glo reagent was added to each well and the plate was further incubated at room temperature for 45 min. 10 μL of the Kinase Detection Reagent was subsequently added to each well. After 10 min of incubation, the plate was read and analyzed on the BioTek Synergy microplate reader using BioTek Gen5 software.

CDK2-CYCLIN E1 = CDK2-CYCLIN E1 (Homo sapiens (Human), UniProt P24941); test: CDK protein kinase inhibition by the ADP-Glo Assay, CDK2-CYCLIN E1; assay type: biochemical; settings: 1000 μM ATP, read-out: CDK2-CYCLIN E, IC50
Protocol: as §1, §2, §3

CDK4-CYCLIN D1 = CDK4-CYCLIN D1 (Homo sapiens (Human), UniProt P11802); test: CDK protein kinase inhibition by the ADP-Glo Assay, CDK4-CYCLIN D1; assay type: biochemical; settings: for IC50: ADP-Glo, 1000 μM ATP; for Selectivity CDK4 vs CDK1 / Selectivity CDK4 vs CDK2 / Selectivity CDK4 vs CDK6 / Selectivity CDK4 vs CDK9: ratio of recombinant kinase IC50s; for Selectivity CDK4 vs CDK1: CDK1 over CDK4; for Selectivity CDK4 vs CDK2: CDK2 over CDK4; for Selectivity CDK4 vs CDK6: CDK6 over CDK4; for Selectivity CDK4 vs CDK9: CDK9 over CDK4
Chain of CDK4-CYCLIN D1 (P11802 whole entry): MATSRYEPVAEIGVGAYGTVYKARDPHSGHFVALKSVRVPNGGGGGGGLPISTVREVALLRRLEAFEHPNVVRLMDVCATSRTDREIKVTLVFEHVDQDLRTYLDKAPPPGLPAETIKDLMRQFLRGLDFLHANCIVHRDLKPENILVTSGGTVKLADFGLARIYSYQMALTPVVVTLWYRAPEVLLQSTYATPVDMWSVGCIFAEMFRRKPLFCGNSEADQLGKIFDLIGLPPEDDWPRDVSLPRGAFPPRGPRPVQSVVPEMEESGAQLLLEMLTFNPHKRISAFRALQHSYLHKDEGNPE
Chain of CDK4-CYCLIN D1 (P24385 whole entry partner): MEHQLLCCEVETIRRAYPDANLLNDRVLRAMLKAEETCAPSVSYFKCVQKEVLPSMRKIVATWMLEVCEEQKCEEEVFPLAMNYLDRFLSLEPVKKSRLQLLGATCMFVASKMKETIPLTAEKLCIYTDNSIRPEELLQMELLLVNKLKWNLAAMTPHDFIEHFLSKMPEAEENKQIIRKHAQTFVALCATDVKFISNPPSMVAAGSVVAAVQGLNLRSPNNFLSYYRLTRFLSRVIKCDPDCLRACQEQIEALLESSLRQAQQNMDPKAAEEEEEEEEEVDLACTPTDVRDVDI
Protocol: as §1, §2, §3

CDK6-CYCLIN D3 = CDK6-CYCLIN D3 (Homo sapiens (Human), UniProt Q00534); test: CDK protein kinase inhibition by the ADP-Glo Assay, CDK6-CYCLIN D3; assay type: biochemical; settings: 1000 μM ATP
Chain of CDK6-CYCLIN D3 (Q00534 whole entry): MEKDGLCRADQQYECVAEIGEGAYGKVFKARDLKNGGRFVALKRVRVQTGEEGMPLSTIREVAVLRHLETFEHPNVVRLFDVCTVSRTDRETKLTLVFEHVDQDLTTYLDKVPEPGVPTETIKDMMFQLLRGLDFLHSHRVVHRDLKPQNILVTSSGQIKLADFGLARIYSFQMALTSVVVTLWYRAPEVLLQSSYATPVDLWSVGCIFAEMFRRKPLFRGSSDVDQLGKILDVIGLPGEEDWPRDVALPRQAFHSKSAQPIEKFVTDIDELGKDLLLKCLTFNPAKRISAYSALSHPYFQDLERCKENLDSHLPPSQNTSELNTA
Chain of CDK6-CYCLIN D3 (P30281 whole entry partner): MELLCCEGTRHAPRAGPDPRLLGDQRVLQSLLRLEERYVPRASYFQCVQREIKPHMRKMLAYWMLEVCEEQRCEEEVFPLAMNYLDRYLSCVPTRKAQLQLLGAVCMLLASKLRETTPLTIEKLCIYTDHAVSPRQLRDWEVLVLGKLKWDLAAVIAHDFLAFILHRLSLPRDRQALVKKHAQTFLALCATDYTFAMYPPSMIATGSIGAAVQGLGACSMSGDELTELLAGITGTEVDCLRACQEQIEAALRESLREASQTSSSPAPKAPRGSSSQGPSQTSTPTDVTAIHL
Protocol: as §1, §2, §3

CDK9-CYCLIN T1 = CDK9-CYCLIN T1 (Homo sapiens (Human), UniProt P50750); test: CDK protein kinase inhibition by the ADP-Glo Assay, CDK9-CYCLIN T1; assay type: biochemical; settings: 1000 μM ATP
Chain of CDK9-CYCLIN T1 (P50750 whole entry): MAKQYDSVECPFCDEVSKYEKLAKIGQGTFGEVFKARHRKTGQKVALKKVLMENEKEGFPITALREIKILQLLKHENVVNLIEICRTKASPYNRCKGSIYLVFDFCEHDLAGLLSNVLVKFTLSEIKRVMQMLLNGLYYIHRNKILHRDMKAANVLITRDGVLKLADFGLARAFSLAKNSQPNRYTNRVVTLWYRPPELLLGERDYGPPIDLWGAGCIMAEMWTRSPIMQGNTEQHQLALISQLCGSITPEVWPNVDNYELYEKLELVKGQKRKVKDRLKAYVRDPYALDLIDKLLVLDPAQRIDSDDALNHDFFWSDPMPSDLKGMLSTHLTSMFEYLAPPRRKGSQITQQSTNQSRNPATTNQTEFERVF
Chain of CDK9-CYCLIN T1 (O60563 whole entry partner): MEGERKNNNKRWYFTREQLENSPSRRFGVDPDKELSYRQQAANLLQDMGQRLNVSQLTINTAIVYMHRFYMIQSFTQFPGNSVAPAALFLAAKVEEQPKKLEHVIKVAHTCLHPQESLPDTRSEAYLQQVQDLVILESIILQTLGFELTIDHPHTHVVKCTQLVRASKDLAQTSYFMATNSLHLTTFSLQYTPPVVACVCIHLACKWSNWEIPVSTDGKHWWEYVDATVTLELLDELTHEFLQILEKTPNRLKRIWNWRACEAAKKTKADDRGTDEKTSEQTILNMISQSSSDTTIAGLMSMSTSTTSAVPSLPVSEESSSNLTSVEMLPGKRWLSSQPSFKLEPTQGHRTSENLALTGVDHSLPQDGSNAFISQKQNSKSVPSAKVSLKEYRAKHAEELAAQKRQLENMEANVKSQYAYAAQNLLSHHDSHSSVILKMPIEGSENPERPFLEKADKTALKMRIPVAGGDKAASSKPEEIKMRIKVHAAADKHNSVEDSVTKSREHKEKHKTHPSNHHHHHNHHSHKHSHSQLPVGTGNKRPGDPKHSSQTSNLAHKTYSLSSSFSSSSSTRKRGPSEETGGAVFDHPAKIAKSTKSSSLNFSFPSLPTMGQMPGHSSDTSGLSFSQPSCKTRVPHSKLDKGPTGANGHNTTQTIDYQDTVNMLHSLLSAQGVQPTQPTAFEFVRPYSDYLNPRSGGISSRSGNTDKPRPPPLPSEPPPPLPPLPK
Protocol: as §1, §2, §3

[1] = Human hepatocyte stability assay; settings: human hepatocytes, 1 μM, 120 min incubation
Protocol: (§5) Human hepatocyte stability assay was performed at Pharmaron. Human hepatocytes from mixed genders were purchased from BioIVT (Product #X008001). Compounds and positive control were incubated with human hepatocytes. Verapmil was used as a positive control. […] An aliquot of 100 μL of the supernatant was diluted by 100 μL ultra-pure water, and the mixture was used for LC/MS/MS analysis. The percent of parent remaining, intrinsic clearance (CLint) and tr2 were calculated.

[2] = tested on: Phospho-Rb (Ser807/811) in SW1573-CDK6 KO cells; test: Phospho-Rb expression inhibition in SW1573-CDK6 KO cells quantified by in cell Western; assay type: cell-based; settings: Homo sapiens, 24 hours, read-out: SW1573 CDK6 KO pRb IC50
Summary of the method: (§4)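 CRISPR CDK4- or CDK6-knockout SW1573 clones were seeded at 20,000 cells/well overnight, then exposed to compound (0.1% DMSO from 1000× stocks) for 24 h at 37° C in 10% FBS medium. Fixed, methanol-permeabilized cells were co-stained for phospho-Rb Ser807/811 and total Rb, with near-infrared in-cell Western read-out.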

[3] = tested on: Phospho-Rb (Ser807/811) in SW1573-CDK4 KO cells; test: Phospho-Rb expression inhibition in SW1573-CDK4 KO cells quantified by in cell Western; assay type: cell-based; settings: Homo sapiens, 24 hours, read-out: SW1573 CDK4 KO pRb IC50
Summary of the method: as §4

in vitro = settings: both, human, hepatocytes
Protocol: as §5

Chain of CDK1-CYCLIN B (P06493 whole entry): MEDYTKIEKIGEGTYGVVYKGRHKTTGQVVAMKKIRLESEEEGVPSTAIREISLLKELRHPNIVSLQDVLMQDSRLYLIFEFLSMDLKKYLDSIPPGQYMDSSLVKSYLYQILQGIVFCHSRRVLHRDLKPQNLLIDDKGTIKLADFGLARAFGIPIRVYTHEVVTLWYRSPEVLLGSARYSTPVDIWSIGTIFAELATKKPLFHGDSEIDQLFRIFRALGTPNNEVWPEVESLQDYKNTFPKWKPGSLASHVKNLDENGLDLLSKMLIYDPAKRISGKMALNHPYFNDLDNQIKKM
Chain of CDK1-CYCLIN B (P14635 whole entry partner): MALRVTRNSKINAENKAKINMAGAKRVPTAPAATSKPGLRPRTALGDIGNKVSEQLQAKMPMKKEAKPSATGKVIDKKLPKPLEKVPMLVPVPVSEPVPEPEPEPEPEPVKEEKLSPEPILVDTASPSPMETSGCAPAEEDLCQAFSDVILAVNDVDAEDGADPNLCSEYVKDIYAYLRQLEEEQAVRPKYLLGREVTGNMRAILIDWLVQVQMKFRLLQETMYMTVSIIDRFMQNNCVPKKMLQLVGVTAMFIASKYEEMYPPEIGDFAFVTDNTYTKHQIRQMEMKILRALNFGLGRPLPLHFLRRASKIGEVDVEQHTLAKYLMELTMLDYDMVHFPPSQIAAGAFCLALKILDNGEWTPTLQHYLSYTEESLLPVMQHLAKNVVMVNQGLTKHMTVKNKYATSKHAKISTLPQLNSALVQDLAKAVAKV

Q: With `CC(C)n1c(C(C)(C)O)nc2c(F)cc(-c3nc(N[C@@H]4CCOC[C@H]4O)ncc3Cl)cc21` [Reference Compound, PF-07220060, reference compound] as the compound, how does the IC50 (CDK1-CYCLIN B) read?
A: 8590 nM

Q: What about the IC50 (CDK2-CYCLIN E1) of the same compound?
A: > 30000 nM

Q: What about the IC50 (CDK4-CYCLIN D1) of the same compound?
A: 4.37 nM

Q: What about the “Selectivity CDK4 vs CDK1” value (CDK4-CYCLIN D1) of the same compound?
A: 1,966

Q: What about the “Selectivity CDK4 vs CDK2” value (CDK4-CYCLIN D1) of the same compound?
A: >6,865

Q: And the “Selectivity CDK4 vs CDK6” value (CDK4-CYCLIN D1)?
A: 18

Q: And the “Selectivity CDK4 vs CDK9” value (CDK4-CYCLIN D1)?
A: 430

Q: And the IC50 (CDK6-CYCLIN D3)?
A: 76.5 nM

Q: What about the IC50 (CDK9-CYCLIN T1) of the same compound?
A: 1880 nM

Q: What about the “Scaled-up CLint” value (hepatocytes) of the same compound?
A: 28.6 mL/min/kg

Q: And the “In vitro CLint (μL/min/10^6 cell)” value (human, hepatocytes)?
A: 11.3 μL/min/10^6 cell

Q: And the “t1/2” value [1]?
A: 2.057 h

Q: What does the source list for `CC(C)n1c(C(C)(C)O)nc2c(F)cc(-c3nc(N[C@@H]4C[C@H]5CO[C@H](O5)[C@H]4O)ncc3Cl)cc21` [Compound 1, (1S,3R,4S,5R)-3-((5-chloro-4-(4-fluoro-2-(2-hydroxypropan-2-yl)-1-isopropyl-1H-benzo[d]imidazol-6-yl)pyrimidin-2-yl)amino)-6,8-dioxabicyclo[3.2.1]octan-4-ol]?
A: IC50 (CDK1-CYCLIN B): 26200 nM; IC50 (CDK2-CYCLIN E1): > 30000 nM; IC50 (CDK4-CYCLIN D1): 3.15 nM; Selectivity CDK4 vs CDK1 (CDK4-CYCLIN D1): 8,317; Selectivity CDK4 vs CDK2 (CDK4-CYCLIN D1): >9,524; Selectivity CDK4 vs CDK6 (CDK4-CYCLIN D1): 20; Selectivity CDK4 vs CDK9 (CDK4-CYCLIN D1): 1,549; Selectivity for CDK4 over CDK1, CDK2, CDK6 and CDK9 compared with the reference compound (CDK4-CYCLIN D1; versus PF-07220060): much better selectivity; IC50 (CDK6-CYCLIN D3): 63.8 nM; IC50 (CDK9-CYCLIN T1): 4880 nM; IC50 [2]: ≤ 40 nM; IC50 [3]: > 1000 nM; Hepatic Extraction Ratio (ER) (both, human, 1 μM): 0.23; Predicted Hepatic CLH (both, human, 1 μM): 4.9 mL/min/kg; In vitro CLint (μL/min/10^6 cell) (human, hepatocytes): 2.5 μL/min/10^6 cell; CLint scaled at 1 μM (in vitro): 6.4 mL/min/kg; half-life at 1 μM (in vitro): 9.26 h
